ChEMBL document CHEMBL1140990, “Evaluation of alpha,beta-unsaturated ketone-based probes for papain-family cysteine proteases” (Bioorg Med Chem, 2009)
The source made the active and inactive calls. No cut-off for these calls is given here.

Key:
[1] = molecular target: Cathepsin B (Homo sapiens) (UniProt P07858); assay: Binding affinity to cathepsin B in human MDA-MB-231 cell lysates; assay type: cell-free
[2] = molecular target: Cathepsin B (Mus musculus) (UniProt P10605); assay: Binding affinity to cathepsin B in mouse spleen crude extracts at 500 nM; assay type: tissue-based
Chain of Cathepsin B (Mus musculus) (P10605 80-333 limits assumed): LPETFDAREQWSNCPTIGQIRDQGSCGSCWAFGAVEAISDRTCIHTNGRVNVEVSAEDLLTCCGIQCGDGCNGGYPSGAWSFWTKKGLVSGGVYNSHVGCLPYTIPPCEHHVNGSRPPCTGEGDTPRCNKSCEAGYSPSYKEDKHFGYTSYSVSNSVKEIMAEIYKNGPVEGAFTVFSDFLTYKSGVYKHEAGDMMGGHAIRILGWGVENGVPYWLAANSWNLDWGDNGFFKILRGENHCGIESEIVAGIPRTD

[3] = molecular target: Cathepsin B (Homo sapiens) (UniProt P07858); assay: Inhibition of human recombinant cathepsin B
[4] = molecular target: Procathepsin L (Homo sapiens) (UniProt P07711); assay: Inhibition of human recombinant cathepsin L
Chain of Procathepsin L (Homo sapiens) (P07711 114-333 limits assumed): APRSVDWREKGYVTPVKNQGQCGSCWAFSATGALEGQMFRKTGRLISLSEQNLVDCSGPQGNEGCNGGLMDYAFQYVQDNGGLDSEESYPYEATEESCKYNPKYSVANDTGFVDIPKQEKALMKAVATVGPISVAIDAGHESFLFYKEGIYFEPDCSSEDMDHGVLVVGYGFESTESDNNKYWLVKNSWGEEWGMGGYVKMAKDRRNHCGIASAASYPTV

[5] = molecular target: Cathepsin B (Mus musculus) (UniProt P10605); assay: Binding affinity to cathepsin B in mouse spleen crude extracts; assay type: tissue-based
[6] = molecular target: Cathepsin B (Mus musculus) (UniProt P10605); assay: Binding affinity to cathepsin B in wild type mouse NIH/3T3 cells; assay type: cell-based; conditions: NIH3T3
[7] = molecular target: T1, Procathepsin L (Mus musculus) (UniProt P06797); assay: Binding affinity to cathepsin L in wild type mouse NIH/3T3 cells; assay type: cell-based; conditions: NIH3T3
T1 sequence (whole entry): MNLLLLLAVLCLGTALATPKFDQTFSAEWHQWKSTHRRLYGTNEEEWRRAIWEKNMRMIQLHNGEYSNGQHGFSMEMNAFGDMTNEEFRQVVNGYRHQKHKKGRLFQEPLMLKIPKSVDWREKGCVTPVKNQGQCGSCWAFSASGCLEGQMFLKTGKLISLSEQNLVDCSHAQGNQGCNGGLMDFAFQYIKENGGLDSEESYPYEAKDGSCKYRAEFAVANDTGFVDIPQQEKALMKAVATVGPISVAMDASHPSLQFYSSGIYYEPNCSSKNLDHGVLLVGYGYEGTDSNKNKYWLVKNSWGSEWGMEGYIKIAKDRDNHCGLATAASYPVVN

Compound	Activity [1]	Activity [2]	Activity [3] [M⁻¹ s⁻¹]	Activity [4] [M⁻¹ s⁻¹]	Activity [5]	Activity [6]	Activity [7]
CC(=O)/C=C/[C@H](C)NC(=O)[C@H](Cc1ccccc1)NC(=O)CCOCCOCCOCCOCCNC(=O)CCCC[C@H]1SC[C@H]2NC(=O)N[C@H]21	Active	Active	–	–	–	–	–
CC(=O)/C=C/[C@H](C)NC(=O)[C@H](Cc1ccccc1)NC(=O)OCc1ccccc1	–	–	36700	1.63e+06	–	–	–
COc1ccc(-c2ccc3n2[B-](F)(F)[N+]2=C(C)C(CCC(=O)NCCCCCC(=O)N[C@@H](Cc4ccccc4)C(=O)N[C@@H](C)/C=C/C(C)=O)=C(C)C2=C3)cc1	–	Active	–	–	Active	Active	Active
